Results on one molecule are retold here after paper PMC10817531, “Chlorinated Enyne Fatty Acid Amides from a Marine Cyanobacterium: Discovery of Taveuniamides L-M and Pharmacological Characterization of Taveuniamide F as a GPCR Antagonist with CNR1 Selectivity” (Marine Drugs, 2023).

One experiment deals with C5aR1 (Homo sapiens, UniProt P21730). The experiment is described as follows: PathHunter β-arrestin GpcrMAX assay. It is filed as cell-based. Summed up: (§1)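 Profiling used PathHunter β-arrestin complementation, with taveuniamide F at a fixed 20 µM in agonist and antagonist configurations.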
In another experiment the target is T1, CCR10 (Homo sapiens, UniProt P46092).
T1 construct: purchased DiscoveRx (Eurofins) gpcrMAX PathHunter β-arrestin panel
The experiment is described as follows: PathHunter β-arrestin GpcrMAX assay. The format is cell-based. In a few lines: as §1

A further experiment has as its target T2, CHRM1 (Homo sapiens, UniProt P11229).
T2 construct: purchased DiscoveRx (Eurofins) gpcrMAX PathHunter β-arrestin panel
The experiment is described as follows: PathHunter β-arrestin GpcrMAX assay. It is filed as cell-based. In a few lines:
as §1

The target of the next experiment is T3, CHRM5 (Homo sapiens, UniProt P08912).
T3 construct: purchased DiscoveRx (Eurofins) gpcrMAX PathHunter β-arrestin panel
The experiment is described as follows: PathHunter β-arrestin GpcrMAX assay. The format is cell-based. Summed up:
as §1

In a further experiment the target is T4, CXCR5 (Homo sapiens, UniProt P32302).
T4 construct: purchased DiscoveRx (Eurofins) gpcrMAX PathHunter β-arrestin panel
The experiment is described as follows: PathHunter β-arrestin GpcrMAX assay. It is filed as cell-based. Summed up:
as §1

The target in the next experiment is T5, F2RL1 (Homo sapiens, UniProt P55085).
T5 construct: purchased DiscoveRx (Eurofins) gpcrMAX PathHunter β-arrestin panel
Nature of the experiment: PathHunter β-arrestin GpcrMAX assay. It is filed as cell-based. In a few lines: as §1

The target in another experiment is T6, FPR1 (Homo sapiens, UniProt P21462).
T6 construct: purchased DiscoveRx (Eurofins) gpcrMAX PathHunter β-arrestin panel
Nature of the experiment: PathHunter β-arrestin GpcrMAX assay. It is filed as cell-based. Summed up: as §1

The next experiment concerns the target T7, GALR2 (Homo sapiens, UniProt O43603).
T7 construct: purchased DiscoveRx (Eurofins) gpcrMAX PathHunter β-arrestin panel
The experiment is described as follows: PathHunter β-arrestin GpcrMAX assay. It is filed as cell-based. Summed up: as §1

For a further experiment, the target named is T8, GIPR (Homo sapiens, UniProt P48546).
T8 construct: purchased DiscoveRx (Eurofins) gpcrMAX PathHunter β-arrestin panel
The experiment is described as follows: PathHunter β-arrestin GpcrMAX assay. It is filed as cell-based. Summed up: as §1

A further experiment has as its target T9, GRPR (Homo sapiens, UniProt P30550).
T9 construct: purchased DiscoveRx (Eurofins) gpcrMAX PathHunter β-arrestin panel
The experiment is described as follows: PathHunter β-arrestin GpcrMAX assay. The format is cell-based. In a few lines: as §1

The next experiment concerns the target T10, HTR1B (Homo sapiens, UniProt P28222).
T10 construct: purchased DiscoveRx (Eurofins) gpcrMAX PathHunter β-arrestin panel
Nature of the experiment: PathHunter β-arrestin GpcrMAX assay. The format is cell-based. Summed up: as §1

The target of a further experiment is T11, MC1R (Homo sapiens, UniProt Q01726).
T11 construct: purchased DiscoveRx (Eurofins) gpcrMAX PathHunter β-arrestin panel
The experiment is described as follows: PathHunter β-arrestin GpcrMAX assay. It is filed as cell-based. Summed up:
as §1

The target of a further experiment is T12, NMU1R (Homo sapiens, UniProt Q9HB89).
T12 construct: purchased DiscoveRx (Eurofins) gpcrMAX PathHunter β-arrestin panel
Nature of the experiment: PathHunter β-arrestin GpcrMAX assay. The format is cell-based. Summed up:
as §1

A further experiment deals with T13, NTSR1 (Homo sapiens, UniProt P30989).
T13 construct: purchased DiscoveRx (Eurofins) gpcrMAX PathHunter β-arrestin panel
Nature of the experiment: PathHunter β-arrestin GpcrMAX assay. It is filed as cell-based. In a few lines:
as §1

The target of a further experiment is T14, OXTR (Homo sapiens, UniProt P30559).
T14 construct: purchased DiscoveRx (Eurofins) gpcrMAX PathHunter β-arrestin panel
Nature of the experiment: PathHunter β-arrestin GpcrMAX assay. The format is cell-based. Summed up:
as §1

For another experiment, the target named is T15, P2RY6 (Homo sapiens, UniProt Q15077).
T15 construct: purchased DiscoveRx (Eurofins) gpcrMAX PathHunter β-arrestin panel
The experiment is described as follows: PathHunter β-arrestin GpcrMAX assay. It is filed as cell-based. Summed up: as §1

The target in a further experiment is T16, SCTR (Homo sapiens, UniProt P47872).
T16 construct: purchased DiscoveRx (Eurofins) gpcrMAX PathHunter β-arrestin panel
The experiment is described as follows: PathHunter β-arrestin GpcrMAX assay. It is filed as cell-based. In a few lines:
as §1

Experiment [1] addresses T17, human recombinant cannabinoid CNR1 receptors (Homo sapiens, UniProt P21554).
T17 construct: host or cells: rat hematopoietic Chem-1 cells (membrane homogenate)
The experiment is described as follows: Competitive radioligand binding assay ([3H]SR141716A). To be noted: 2 nM [3H]SR141716A, 60 min, 37 °C, Chem-1 cell membranes. As to the method:
(a) Competitive radioligand binding assay of 4 to CNR1. Membrane homogenate of rat hematopoietic Chem-1 cells expressing human recombinant CNR1 receptors is incubated with 2 nM [3H]SR141716A for 60 min at 37 °C. […] (b) Effect of 4 in CNR1 cAMP functional assay in agonist and antagonist mode. Experiments were carried out as technical duplicates. Data are presented as mean ± SD (n = 2).
The assay was carried out by Eurofins Panlabs Discovery Services (New Taipei City, Taiwan). Human recombinant cannabinoid CNR1 receptors expressed in rat hematopoietic Chem-1 cells were used in modified HEPES buffer (50 mM HEPES, pH 7.4, 5 mM MgCl2, 1 mM CaCl2, 0.2% BSA). A 5 µg aliquot of membrane homogenate was incubated with 2 nM [^3H]SR141716A for 60 min at 37 °C. […] Membranes were filtered and washed four times and the filters were counted to determine [^3H]SR141716A as specifically bound. Compound 4 was screened at 8 concentrations, where the highest concentration was 50 µM. […] The experiments were carried out as technical duplicates.

T17 sequence (P21554 whole entry): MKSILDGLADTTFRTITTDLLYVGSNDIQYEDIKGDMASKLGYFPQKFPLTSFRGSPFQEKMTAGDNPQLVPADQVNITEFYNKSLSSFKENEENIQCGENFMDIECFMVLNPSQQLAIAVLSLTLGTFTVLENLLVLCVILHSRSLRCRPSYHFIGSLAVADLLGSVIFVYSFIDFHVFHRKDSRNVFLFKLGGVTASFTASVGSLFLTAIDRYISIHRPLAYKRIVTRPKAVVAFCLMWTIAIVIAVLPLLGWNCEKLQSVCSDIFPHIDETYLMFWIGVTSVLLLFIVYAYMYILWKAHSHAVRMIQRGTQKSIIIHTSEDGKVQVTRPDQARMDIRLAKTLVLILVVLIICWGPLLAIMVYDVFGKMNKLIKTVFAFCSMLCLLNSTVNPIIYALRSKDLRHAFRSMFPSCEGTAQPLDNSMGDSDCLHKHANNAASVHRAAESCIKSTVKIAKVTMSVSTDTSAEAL
T11 sequence (Q01726 whole entry): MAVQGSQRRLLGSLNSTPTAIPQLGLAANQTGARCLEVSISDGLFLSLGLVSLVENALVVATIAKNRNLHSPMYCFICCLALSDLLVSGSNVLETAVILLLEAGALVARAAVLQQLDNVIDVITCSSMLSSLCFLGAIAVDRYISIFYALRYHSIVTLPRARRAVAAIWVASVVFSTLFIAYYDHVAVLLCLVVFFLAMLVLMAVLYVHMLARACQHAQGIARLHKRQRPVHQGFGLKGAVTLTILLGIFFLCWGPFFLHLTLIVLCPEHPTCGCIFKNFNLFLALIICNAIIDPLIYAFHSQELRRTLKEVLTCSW
T10 sequence (P28222 whole entry): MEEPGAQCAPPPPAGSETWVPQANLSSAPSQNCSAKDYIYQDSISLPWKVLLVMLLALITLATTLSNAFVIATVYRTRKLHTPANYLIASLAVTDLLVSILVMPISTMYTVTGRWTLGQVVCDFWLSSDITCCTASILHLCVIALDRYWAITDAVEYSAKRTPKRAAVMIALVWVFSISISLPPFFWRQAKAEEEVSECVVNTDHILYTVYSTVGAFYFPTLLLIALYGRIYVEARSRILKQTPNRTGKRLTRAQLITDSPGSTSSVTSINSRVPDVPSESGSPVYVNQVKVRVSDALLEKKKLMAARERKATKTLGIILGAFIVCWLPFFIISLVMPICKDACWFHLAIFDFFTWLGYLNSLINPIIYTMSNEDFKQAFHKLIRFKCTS
T6 sequence (P21462 whole entry): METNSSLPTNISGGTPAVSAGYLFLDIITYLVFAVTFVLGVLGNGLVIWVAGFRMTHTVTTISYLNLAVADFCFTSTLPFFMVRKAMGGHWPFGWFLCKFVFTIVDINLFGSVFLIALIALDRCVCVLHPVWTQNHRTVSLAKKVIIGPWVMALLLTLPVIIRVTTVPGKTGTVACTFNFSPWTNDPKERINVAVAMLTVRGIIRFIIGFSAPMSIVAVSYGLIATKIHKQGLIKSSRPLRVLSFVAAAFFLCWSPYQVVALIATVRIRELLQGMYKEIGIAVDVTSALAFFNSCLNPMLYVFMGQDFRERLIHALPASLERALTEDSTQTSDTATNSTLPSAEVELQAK
T5 sequence (P55085 26-397): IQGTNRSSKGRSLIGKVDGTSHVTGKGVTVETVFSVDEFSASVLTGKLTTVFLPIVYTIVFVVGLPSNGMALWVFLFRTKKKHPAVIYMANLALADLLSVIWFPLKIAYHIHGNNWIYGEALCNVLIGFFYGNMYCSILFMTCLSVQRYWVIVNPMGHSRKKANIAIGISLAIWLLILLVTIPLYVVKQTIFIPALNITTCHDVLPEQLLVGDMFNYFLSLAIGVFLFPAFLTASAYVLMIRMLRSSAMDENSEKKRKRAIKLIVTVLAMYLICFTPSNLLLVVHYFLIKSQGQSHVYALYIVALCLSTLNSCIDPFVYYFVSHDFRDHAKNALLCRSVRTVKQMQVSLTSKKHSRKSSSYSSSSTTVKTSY
T13 sequence (P30989 whole entry): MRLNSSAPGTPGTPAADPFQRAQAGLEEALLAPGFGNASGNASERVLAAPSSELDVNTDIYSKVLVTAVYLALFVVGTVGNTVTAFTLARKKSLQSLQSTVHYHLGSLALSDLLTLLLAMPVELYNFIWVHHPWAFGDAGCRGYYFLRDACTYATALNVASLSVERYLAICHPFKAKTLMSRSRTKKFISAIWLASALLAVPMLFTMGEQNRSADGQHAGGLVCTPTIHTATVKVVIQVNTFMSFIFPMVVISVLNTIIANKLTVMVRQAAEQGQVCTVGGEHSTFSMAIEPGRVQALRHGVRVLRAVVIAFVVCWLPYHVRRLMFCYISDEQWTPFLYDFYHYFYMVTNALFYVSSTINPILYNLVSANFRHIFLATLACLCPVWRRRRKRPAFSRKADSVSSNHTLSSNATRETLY
T3 sequence (P08912 whole entry): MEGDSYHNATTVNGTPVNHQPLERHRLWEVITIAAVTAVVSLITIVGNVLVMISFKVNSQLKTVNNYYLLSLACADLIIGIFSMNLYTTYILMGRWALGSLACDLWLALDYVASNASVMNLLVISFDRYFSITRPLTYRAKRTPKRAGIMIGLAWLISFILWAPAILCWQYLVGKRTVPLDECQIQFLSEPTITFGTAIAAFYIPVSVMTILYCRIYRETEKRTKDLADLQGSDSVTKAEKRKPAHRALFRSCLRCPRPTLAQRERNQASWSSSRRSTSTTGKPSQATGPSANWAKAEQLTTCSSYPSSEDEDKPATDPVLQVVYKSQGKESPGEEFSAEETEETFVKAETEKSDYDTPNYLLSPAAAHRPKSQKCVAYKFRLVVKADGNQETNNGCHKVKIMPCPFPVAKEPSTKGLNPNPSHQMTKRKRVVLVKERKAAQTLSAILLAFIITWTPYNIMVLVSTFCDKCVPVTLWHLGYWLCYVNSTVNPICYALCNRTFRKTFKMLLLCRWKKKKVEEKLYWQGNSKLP
T1 sequence (P46092 whole entry): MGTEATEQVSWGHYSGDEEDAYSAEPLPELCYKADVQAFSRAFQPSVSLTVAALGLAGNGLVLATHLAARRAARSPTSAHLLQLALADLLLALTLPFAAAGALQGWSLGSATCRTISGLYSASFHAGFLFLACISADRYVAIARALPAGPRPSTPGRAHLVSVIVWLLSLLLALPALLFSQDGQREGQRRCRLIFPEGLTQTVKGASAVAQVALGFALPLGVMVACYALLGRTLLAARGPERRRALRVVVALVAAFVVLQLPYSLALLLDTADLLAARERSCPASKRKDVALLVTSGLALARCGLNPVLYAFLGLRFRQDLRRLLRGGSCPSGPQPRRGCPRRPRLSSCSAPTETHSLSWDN
T15 sequence (Q15077 whole entry): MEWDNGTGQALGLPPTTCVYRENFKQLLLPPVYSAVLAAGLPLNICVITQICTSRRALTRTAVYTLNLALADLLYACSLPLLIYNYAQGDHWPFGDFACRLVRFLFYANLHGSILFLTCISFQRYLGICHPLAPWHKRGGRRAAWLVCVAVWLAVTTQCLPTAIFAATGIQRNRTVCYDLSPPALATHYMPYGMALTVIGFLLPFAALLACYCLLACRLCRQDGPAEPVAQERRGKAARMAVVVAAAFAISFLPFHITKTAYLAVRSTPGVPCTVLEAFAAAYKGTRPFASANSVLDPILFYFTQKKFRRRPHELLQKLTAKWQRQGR
T12 sequence (Q9HB89 whole entry): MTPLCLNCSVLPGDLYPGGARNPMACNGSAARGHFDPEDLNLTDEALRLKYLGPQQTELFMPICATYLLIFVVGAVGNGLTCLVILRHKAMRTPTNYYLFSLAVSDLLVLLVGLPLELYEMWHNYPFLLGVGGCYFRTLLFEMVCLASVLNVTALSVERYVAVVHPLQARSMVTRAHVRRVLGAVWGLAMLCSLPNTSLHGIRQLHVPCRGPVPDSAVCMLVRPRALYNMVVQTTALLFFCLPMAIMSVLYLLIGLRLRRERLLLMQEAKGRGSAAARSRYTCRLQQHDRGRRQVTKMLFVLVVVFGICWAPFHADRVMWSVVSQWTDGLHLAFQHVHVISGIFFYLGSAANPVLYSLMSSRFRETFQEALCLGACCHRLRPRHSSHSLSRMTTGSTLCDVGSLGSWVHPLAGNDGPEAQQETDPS
T7 sequence (O43603 whole entry): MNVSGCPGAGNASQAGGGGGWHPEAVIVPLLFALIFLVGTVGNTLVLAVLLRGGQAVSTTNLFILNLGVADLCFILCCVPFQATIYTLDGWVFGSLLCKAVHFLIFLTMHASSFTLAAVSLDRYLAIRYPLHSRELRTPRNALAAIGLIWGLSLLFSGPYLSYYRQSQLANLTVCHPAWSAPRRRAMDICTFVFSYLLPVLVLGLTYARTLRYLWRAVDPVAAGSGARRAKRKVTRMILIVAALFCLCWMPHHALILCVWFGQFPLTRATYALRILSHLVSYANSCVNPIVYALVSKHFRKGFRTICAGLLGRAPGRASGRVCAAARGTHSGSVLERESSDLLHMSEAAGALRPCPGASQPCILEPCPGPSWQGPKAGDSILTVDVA
T14 sequence (P30559 whole entry): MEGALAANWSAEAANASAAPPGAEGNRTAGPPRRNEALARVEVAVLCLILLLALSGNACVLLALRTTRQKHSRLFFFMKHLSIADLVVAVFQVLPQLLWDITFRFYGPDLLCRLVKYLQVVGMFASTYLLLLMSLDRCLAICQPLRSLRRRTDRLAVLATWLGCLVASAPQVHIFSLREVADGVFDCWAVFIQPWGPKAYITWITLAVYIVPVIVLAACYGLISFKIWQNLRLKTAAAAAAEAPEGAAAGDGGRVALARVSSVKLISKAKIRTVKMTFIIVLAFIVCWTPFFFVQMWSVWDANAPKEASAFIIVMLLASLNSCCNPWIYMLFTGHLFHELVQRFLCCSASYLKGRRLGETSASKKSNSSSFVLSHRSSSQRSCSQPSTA

What is called inhibition is the change of the read-out against control, counted positive when it falls. For orientation: IC50 means the midpoint of a concentration-inhibition curve. As usually defined, the Ki is the equilibrium dissociation constant of an inhibitor or competing ligand from its target. As for `CC(=O)N[C@@H](CCCC#C/C=C/Cl)CCCCCCC(Cl)Cl` [Compound 4, taveuniamide F], the inhibition at 20 µM is 1.4% at C5aR1; 33.3% against CCR10; 21.8% against CHRM1; 31.6% on CHRM5; 5.1% on CXCR5; -6.7% against F2RL1. The inhibition at 20 µM against FPR1 is -4.7%; against GALR2 it was 23.1%; against GIPR, 23.3%; against GRPR, 6.2%; against HTR1B, 33.9%; against MC1R, 10.2%. Moreover, the inhibition at 20 µM worked out at 30.1% against NMU1R; 18.8% on NTSR1; 34.2% against OXTR; 1.2% on P2RY6; 16.9% at SCTR. The concentration for half-maximal inhibition (IC50) in experiment [1] is 37.7 µM. Moreover, in [1], the Ki stood at 34 µM.
